Data as given in US9050378B2, “N2S2 chelate-targeting ligand conjugates” (Board of Regents, The University of Texas System, priority 2003, dated 2015).
Values belong to the compound of their own block, whether it stands above or below them. Ends that are not written are not given here.

Legend:
[1] = system: RBA CRL-1747 mammary tumor; experiment: Biodistribution in breast (mammary) tumor-bearing rats; type: in vivo, rat; details: iv
Method: (§1) Biodistribution was assessed in mammary tumor-bearing rats (RBA CRL-1747, n=3/time interval, iv). Studies were performed 14 to 17 days after implantation when tumors reached approximately 1 cm in diameter. Following administration of the radiotracer, rats were sacrificed at 0.5-4 hrs. The selected tissues were excised, weighed and counted for radioactivity by using a gamma counter (Packard Instruments, Downers Grove, Ill.). The biodistribution of tracer in each sample was calculated as percentage of the injected dose per gram of tissue wet weight (% ID/g).
as §1, with “breast” for “mammary”

[2] = system: RBA CRL-1747 (breast cancer cells); experiment: In vitro cellular uptake compared to ^99mTc-EC in breast cancer cells; type: cell-based, rat; details: 0.5-2 hrs
Method: An in vitro cell culture using tumor cells was incubated with ^99mTc-EC-celecoxib (4 μCi/50,000 cells/well) at 0.5-2 hrs in RBA CRL-1747.
An in vitro cell culture using tumor cells was incubated with ^99mTc-EC-LH antibody (4 μCi/50,000 cells/well) at 0.5-2 hrs in RBA CRL-1747 (breast cancer cells).
An in vitro cell culture using tumor cells was incubated with ^99mTc-EC-carnitine (4-6 μCi/50,000 cells/well) at 0.5-2 hrs in breast cancer cells.

[3] = system: human prostate cancer cells (LNCap, PC-3); experiment: In vitro cellular uptake in human prostate cancer cells; type: cell-based; details: 0.5-2 hrs, LNCap and PC-3
Method: An in vitro cell culture using tumor cells was incubated with ^99mTc-EC-LHRH (4-6 μCi/100,000 cells/well) at 0.5-2 hrs in human prostate cancer cells. Two types cell lines were used. They are either sensitive to androgen (LNCap) or unresponsive to androgen (PC-3) therapy.

BONE/MUSCLE ([1]; 30 min): 2.419 ± 0.225
Tumor/Blood ([1]; 30 min): 0.255 ± 0.022
Tumor/Muscle ([1]; 30 min): 4.375 ± 0.304
UTERUS/BLOOD ([1]; 30 min): 0.259 ± 0.003
UTERUS/MUSCLE ([1]; 30 min): 4.471 ± 0.257
BONE/MUSCLE ([1]; 2 h): 3.058 ± 0.114
Tumor/Blood ([1]; 2 h): 0.307 ± 0.018
Tumor/Muscle ([1]; 2 h): 6.876 ± 0.704
UTERUS/BLOOD ([1]; 2 h): 0.240 ± 0.021
UTERUS/MUSCLE ([1]; 2 h): 5.442 ± 0.852
BONE/MUSCLE ([1]; 4 h): 4.314 ± 0.739
Tumor/Blood ([1]; 4 h): 0.395 ± 0.014
Tumor/Muscle ([1]; 4 h): 9.715 ± 0.387
UTERUS/BLOOD ([1]; 4 h): 0.255 ± 0.005
UTERUS/MUSCLE ([1]; 4 h): 6.278 ± 0.199
Compound: Cc1ccc(-c2cc(C(F)(F)F)nn2-c2ccc(S(=O)(=O)NC(=O)NCC(=O)NCCNC(=O)C3C[S][99Tc]45(=[O])[S]CC(C(=O)O)[N]4CC[N]35)cc2)cc1 (stereo not drawn) [^99mTc-EC-celecoxib]
tumor-to-tissue count density ratios ([1]; 0.5-4 hrs): increased tumor-to-tissue count density ratios as a function of time
BONE & JOINT ([1]; 30 min): 0.324 ± 0.036 % of injected dose per gram of tissue weight
Blood ([1]; 30 min): 2.293 ± 0.038 % of injected dose per gram of tissue weight
Heart ([1]; 30 min): 0.475 ± 0.025 % of injected dose per gram of tissue weight
Intestine ([1]; 30 min): 0.406 ± 0.039 % of injected dose per gram of tissue weight
Kidney ([1]; 30 min): 4.963 ± 0.147 % of injected dose per gram of tissue weight
Liver ([1]; 30 min): 1.556 ± 0.046 % of injected dose per gram of tissue weight
Lung ([1]; 30 min): 1.033 ± 0.035 % of injected dose per gram of tissue weight
Muscle ([1]; 30 min): 0.133 ± 0.007 % of injected dose per gram of tissue weight
Spleen ([1]; 30 min): 0.594 ± 0.298 % of injected dose per gram of tissue weight
Stomach ([1]; 30 min): 0.370 ± 0.010 % of injected dose per gram of tissue weight
Thyroid ([1]; 30 min): 0.784 ± 0.090 % of injected dose per gram of tissue weight
Tumor ([1]; 30 min): 0.587 ± 0.062 % of injected dose per gram of tissue weight
UTERUS ([1]; 30 min): 0.595 ± 0.003 % of injected dose per gram of tissue weight
BONE & JOINT ([1]; 2 h): 0.190 ± 0.003 % of injected dose per gram of tissue weight
Blood ([1]; 2 h): 1.388 ± 0.063 % of injected dose per gram of tissue weight
Heart ([1]; 2 h): 0.283 ± 0.017 % of injected dose per gram of tissue weight
Intestine ([1]; 2 h): 0.276 ± 0.061 % of injected dose per gram of tissue weight
Kidney ([1]; 2 h): 6.088 ± 0.305 % of injected dose per gram of tissue weight
Liver ([1]; 2 h): 1.461 ± 0.049 % of injected dose per gram of tissue weight
Lung ([1]; 2 h): 0.712 ± 0.098 % of injected dose per gram of tissue weight
Muscle ([1]; 2 h): 0.062 ± 0.003 % of injected dose per gram of tissue weight
Spleen ([1]; 2 h): 0.965 ± 0.056 % of injected dose per gram of tissue weight
Stomach ([1]; 2 h): 0.187 ± 0.004 % of injected dose per gram of tissue weight
Thyroid ([1]; 2 h): 0.449 ± 0.015 % of injected dose per gram of tissue weight
Tumor ([1]; 2 h): 0.424 ± 0.019 % of injected dose per gram of tissue weight
UTERUS ([1]; 2 h): 0.334 ± 0.034 % of injected dose per gram of tissue weight
BONE & JOINT ([1]; 4 h): 0.178 ± 0.022 % of injected dose per gram of tissue weight
Blood ([1]; 4 h): 1.031 ± 0.033 % of injected dose per gram of tissue weight
Heart ([1]; 4 h): 0.224 ± 0.004 % of injected dose per gram of tissue weight
Intestine ([1]; 4 h): 0.190 ± 0.006 % of injected dose per gram of tissue weight
Kidney ([1]; 4 h): 6.363 ± 0.260 % of injected dose per gram of tissue weight
Liver ([1]; 4 h): 1.506 ± 0.080 % of injected dose per gram of tissue weight
Lung ([1]; 4 h): 0.500 ± 0.011 % of injected dose per gram of tissue weight
Muscle ([1]; 4 h): 0.002 ± 0.004 % of injected dose per gram of tissue weight
Spleen ([1]; 4 h): 0.981 ± 0.041 % of injected dose per gram of tissue weight
Stomach ([1]; 4 h): 0.139 ± 0.004 % of injected dose per gram of tissue weight
Thyroid ([1]; 4 h): 0.372 ± 0.021 % of injected dose per gram of tissue weight
Tumor ([1]; 4 h): 0.406 ± 0.004 % of injected dose per gram of tissue weight
UTERUS ([1]; 4 h): 0.263 ± 0.005 % of injected dose per gram of tissue weight
cellular uptake compared to ^99mTc-EC [2]: significant increase in uptake

Compound: ^99mTc-EC-LHRH (QHWSYGLRPG; also: 99mTc-ethylenedicysteine label, site not given here; UniProt P01148 24-33, looked up)
cellular uptake compared to ^99mTc-EC [3]: significant increased uptake
